The values that follow come from patent US12409181B2, “Treatment for aortic aneurysms” (THE REGENTS OF THE UNIVERSITY OF CALIFORNIA, priority 2019, dated 2025).

“Also recorded” adds a separate entry of the source.

The test system of assay [1] is aortic rings. The assay can be described thus: Arterial ring isometric tension measurements. More on the design: species or system mice. As to the method: Arterial Ring Isometric Tension Measurements. Isometric tension in aortas was measured as previously described,^64 with minor modifications. Thoracic aortas were dissected in Krebs-Henseleit solution, cleaned of any adherent connective tissue, and cut into 1.5-2 mm segments. Rings with intact endothelium were mounted in a wire myograph over 40 μm wires, set at a resting tension of 0.5 g, and allowed to equilibrate at 37° C. for 45 min with intermittent washes every 15 min. After equilibration, aortas were treated with 40 mM K^+-solution. For vascular relaxation by acetylcholine (Sigma) or 8-(4-chlorophenylthio)cGMP (8-CPT-cGMP, BioLog), each aortic ring was pre-contracted to generate ˜0.15 g contraction by treatment with prostaglandin-F2α (PGF2α 2-8 μM, Thermo-Fisher). The degree of relaxation was calculated as a percent of PGF2α-induced contraction.

Assay [2] concerns human aortic SMCs. The assay can be described thus: SMC apoptosis by cleaved caspase-3 staining. It is filed as cell-based. To be noted: human SMCs expressing PKG1^RQ. As to the method:
(§1) SMC Culture and Adenovirus Infection. Murine aortic SMCs were isolated from the aortas of 8-12 week old wild type and PKG1^RQ/+ mice and were cultured in Smooth Muscle Basal Media (SmBM) containing 20% FBS, pyruvate, HEPES, L-glutamine, penicillin/streptomycin and growth factors (SmBM Bullet kit; CC-4149 from Lonza), as previously described.^69 Two independent cell isolates from wild type and PKG1^RQ mice were used at passage one. Human primary aortic SMCs were purchased from Lifeline Cell Technology (Frederick, MD, FC-0015) and cultured in VascuLife Basal Medium supplemented with recombinant epidermal growth factor, insulin, and fibroblast growth factor-b, ascorbic acid, L-glutamine, 20% FBS, gentamycin, and amphotericin (Vasculife SMC LifeFactors kit; LS-1040 from Lifeline Technologies). Human SMCs were used at passages 3-6. Adenovirus was generated using the ViraPower Adenoviral Expression System (Thermo Fisher).^67 Human SMCs were infected with virus expressing wild type or mutant human PKG1α (containing the R177Q mutation); the MOI was 3-10 and titrated to produce wild type and mutant kinase at 2-3 fold the level of endogenous PKG1 at 72 h post infection. […]
(§2) SMC Immunofluorescence Staining. […] Images were analyzed with a Keyence BZ-X700 fluorescence microscope.

The subject of assay [3] is human aortic SMCs. The assay can be described thus: H2O2 production by Amplex Red in SMCs expressing PKG1^RQ. As to conditions: human aortic SMCs infected with PKG1^RQ adenovirus. The format is cell-based. The protocol: as §1, with “3-6.” for “3-6. Adenovirus was generated using the ViraPower Adenoviral Expression System (Thermo Fisher).^67 Human SMCs were infected with virus expressing wild type or mutant human PKG1α (containing the R177Q mutation); the MOI was 3-10 and titrated to produce wild type and mutant kinase at 2-3 fold the level of endogenous PKG1 at 72 h post infection.”
Amplex Red and NADPH Oxidase Assays. Primary murine SMCs isolated from wild type or PKG1^RQ/+ aortas, and human SMCs infected with control, wild type, or mutant PKG1^RQ virus, were seeded at 4×10^4 cells/well in 96-well plates, and H2O2 production was measured using an Amplex Red/Hydrogen Peroxide/Peroxidase Assay Kit (Thermo Fischer Scientific). […] Fluorescence was measured every min in a BioTek Synergy 2 plate reader, using 540 nm excitation and 590 nm emission wavelengths.

Assay [4] has as its system human aortic SMCs. In words: DNA oxidation by 8-OH-deoxyguanosine immunofluorescence staining in SMCs. It is filed as cell-based. To be noted: human aortic SMCs expressing PKG1^RQ. As to the method: as §1, §2
Assay [5] concerns human aortic SMCs. The assay can be described thus: SMC proliferation by BrdU uptake. The format is cell-based. The protocol:
as §1, §2

Assay [6] concerns Prkg1^RQ/+ mice. The assay can be described thus: Transverse aortic constriction (TAC) with N-acetylcysteine treatment. It is filed as in vivo.
Assay [7] has as its system human aortic SMCs. The assay can be described thus: Western blots (VASP phosphorylation, JNK activation) and OxyBlot protein oxidation in human SMCs. To be noted: human aortic SMCs, combined with low concentrations of an NO donor. The format is cell-based. The protocol:
Western Blotting. Following anesthesia with ketamine (100 mg/kg) and xylazine (10 mg/kg) by intraperitoneal injection, mice were exsanguinated and perfused with ice-cold phosphate-buffered saline (PBS) containing protease inhibitor cocktail (Calbiochem #539131). Aortas were excised, cleaned from surrounding tissue, and snap-frozen in liquid nitrogen within 15 min of euthanasia. Frozen aortas were pulverized and sonicated (3×10 sec) in ice-cold RIPA buffer (50 mM NaCl, 50 mM Tris-HCl, pH 8, 1% NP-40, 0.1% SDS, 0.5% sodium deoxycholate) supplemented with 1 mM NaF, 1 mM β-glycerolphosphate, and protease inhibitor cocktail. Western blots were developed with primary antibodies specific for PKG1 (1:1000, Cell Signaling Technology; 3248, […] (1:1000, Cell Signaling Technology; 3114), GAPDH (1:1000, Cell Signaling Technology; 2118), β-actin (1:5000, Santa Cruz Biotechnology; 47778), and JNK-phospho-Thr^183/Tyr^185 (1:1000, Cell Signaling Technology; 9251). Blots were developed and visualized with enhanced chemiluminescence using LI-COR Odyssey (with ImageStudio, V5) or with film in the linear range of exposure (with densitometry scanning using ImageJ (V1.51). Protein carbonyl groups (aldehydes and ketones) were detected using the OxyBlot™ Protein Oxidation Detection Kit (Millipore EMD; S7150). Unprocessed scans of blots are provided in the Source Data file.
SMC Culture and Adenovirus Infection. Murine aortic SMCs were isolated from the aortas of 8-12 week old wild type and PKG1^RQ/+ mice and were cultured in Smooth Muscle Basal Media (SmBM) containing 20% FBS, pyruvate, HEPES, L-glutamine, penicillin/streptomycin and growth factors (SmBM Bullet kit; CC-4149 from Lonza), as previously described.^69 Two independent cell isolates from wild type and PKG1^RQ mice were used at passage one. Human primary aortic SMCs were purchased from Lifeline Cell Technology (Frederick, MD, FC-0015) and cultured in VascuLife Basal Medium supplemented with recombinant epidermal growth factor, insulin, and fibroblast growth factor-b, ascorbic acid, L-glutamine, 20% FBS, gentamycin, and amphotericin (Vasculife SMC LifeFactors kit; LS-1040 from Lifeline Technologies). Human SMCs were used at passages 3-6. Adenovirus was generated using the ViraPower Adenoviral Expression System (Thermo Fisher).^67 Human SMCs were infected with virus expressing wild type or mutant human PKG1α (containing the R177Q mutation); the MOI was 3-10 and titrated to produce wild type and mutant kinase at 2-3 fold the level of endogenous PKG1 at 72 h post infection. […] For knock-down of NOX2 and NOX4, SMCs were infected with adenovirus expressing shNOX2 or shNOX4 oligomers (downstream of the U6 promoter) at an MOI of 100; H2O2 production and NADPH oxidase activity assays were performed 48 h later (as described below).

With `Nc1nc2c(nc(Sc3ccc(Cl)cc3)n2[C@@H]2O[C@@H]3COP(=O)(O)O[C@H]3[C@H]2O)c(=O)[nH]1` [8-CPT-cGMP, 8-(4-chlorophenylthio)cGMP], the “relaxation of pre-contracted aortic rings in response to the agent” value in assay [1] (Prkg1^RQ/+ versus wild type aortas, rings pre-contracted with PGF2α) is recorded as “reduced in the mutant mice compared to wild type mice”.

With `CN(C)c1cccc(-c2c3c(=O)n(-c4ccccc4Cl)[nH]c3cc(=O)n2C)c1` [GKT137831], the “pro-apoptotic effect of PKG1^RQ (SMC apoptosis)” value in assay [2] is reported as “partly prevented”. Besides, the “H2O2 production in PKG1^RQ-expressing cells” value in assay [3] was “reduced H2O2 production in the PKG1^RQ-expressing cells to a level found in control cells”. Further, in assay [4], the “PKG1^RQ-induced increase in DNA oxidation (pro-oxidant effect of PKG1^RQ)” value is on record as “blocked”. Moreover, in assay [5] (human SMCs expressing PKG1^RQ, growth factor-induced proliferation), the “growth-inhibitory effect of PKG1^RQ (SMC proliferation)” value is “partly prevented”.

Regarding `CC(=O)N[C@@H](CS)C(=O)O` [NAC, N-acetylcysteine], in assay [6] (NAC-treated mice), the “aortic pressure gradients after TAC surgery” value was “did not affect” and the “pre-stenotic aortic dilation after TAC” value was “did not affect”. Further, the “survival after TAC compared to untreated mice” value in assay [6] (NAC-treated mutant mice, 14 d after TAC) is reported as “trend towards improved survival; also recorded: its effect on mortality was limited”. In assay [6] (Prkg1^RQ/+ mice, 1 mg/ml NAC in drinking water four weeks prior to and two weeks after TAC), the “TAC-induced aortic pathological changes, including media thinning” value is recorded as “largely prevented; also recorded: effective in ameliorating aortic wall injury after TAC”. Further, the “oxidative stress after TAC” value in assay [6] (Prkg1^RQ/+ mice, NAC four weeks prior to and two weeks after TAC) is listed as “reduced oxidative stress”. For the same compound, the “effect in wild type mice after TAC” value in assay [6] (wild type mice, NAC four weeks prior to and two weeks after TAC) was “no obvious effect”.

As for `CCCc1nn(C)c2c(=O)[nH]c(-c3cc(S(=O)(=O)N4CCN(C)CC4)ccc3OCC)nc12` [sildenafil, reference compound], in assay [7], the JNK activation result was “induced JNK activation” and the VASP phosphorylation entry was “increased VASP phosphorylation”. Besides, the SMC proliferation result in assay [5] (human aortic SMCs, drug combination of sildenafil and NO donor) is recorded as “inhibited SMC proliferation”.

As for prostaglandin F2α, the “concentration required to pre-contract aortic rings, mutant mice” value in assay [1] (eight month-old Prkg1^RQ/+ mice, n=5 vessels) came out at 2.27 ± 0.86 µM. The “concentration required to pre-contract aortic rings, wild type mice” value in assay [1] (eight month-old wild type mice, n=5 vessels) was determined as 2.15 ± 0.17 µM.
